# Patent publication US10167262B2, “Herbicidal substituted 3-arylpyrazoles” (FMC CORPORATION, priority 2014, dated 2019)
# Tests used:
# Format in all cases: in vivo
# [1] = system: rice (Oryza sativa); experiment: Test B flooded paddy test, plant response rating 0-100; settings: Flood, 250 g ai/ha; scale 0 to 100 (0 no effect, 100 complete control); 13 to 15 days
# Method in brief: (§1)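 Ratings were visual and made relative to untreated controls after 13 to 15 greenhouse days.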
# [2] = system: ducksalad (Heteranthera limosa); experiment: as above; settings: Flood, 250 g ai/ha; scale 0 to 100 (0 no effect, 100 complete control); 13 to 15 days
# Method in brief: as §1
# [3] = system: barnyardgrass (Echinochloa crus-galli); experiment: as above; settings: Flood, 250 g ai/ha; scale 0 to 100 (0 no effect, 100 complete control); 13 to 15 days
# Method in brief: as §1
# [4] = system: sedge, umbrella (small-flower umbrella sedge, Cyperus difformis); experiment: as above; settings: Flood, 250 g ai/ha; scale 0 to 100 (0 no effect, 100 complete control); 13 to 15 days
# Method in brief: as §1
# [5] = system: Italian ryegrass (Lolium multiflorum); experiment: Test E pre-/postemergence greenhouse test, plant response rating 0-100; settings: scale 0 to 100; for Plant response rating, Ryegrass, Italian: Postemergence; for Ryegrass, Italian plant response rating: Preemergence
# Method in brief: (§2)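 Pre: seeded silt loam sprayed; post: 1–4-leaf plants (2–18 cm) in peat-based mix sprayed. Formulation: non-phytotoxic solvent + surfactant. Greenhouse 14–21 d; visual rating vs controls, 0 = no effect, 100 = complete control.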
# [6] = system: wild poinsettia (Euphorbia heterophylla); experiment: as above; settings: scale 0 to 100; for Plant response rating, Poinsettia, Wild: Postemergence; for Poinsettia, Wild plant response rating: Preemergence
# Method in brief: as §2
# [7] = system: waterhemp_RES2, (ALS & HPPD resistant common waterhemp, Amaranthus rudis); experiment: Test E postemergence greenhouse test, plant response rating 0-100; settings: scale 0 to 100
# Method in brief: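 Visual ratings, 0 (no effect) to 100 (complete control), made versus controls 14–21 days after postemergence application in the greenhouse. Plants were at 1- to 4-leaf stage (2–18 cm) in peat moss/vermiculite potting medium.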
# [8] = system: waterhemp (common waterhemp, Amaranthus rudis); experiment: Test C pre-/postemergence greenhouse test, plant response rating 0-100
# Method in brief: (§3)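 Visual rating vs controls after 13–15 d greenhouse; 0 = no effect, 100 = complete control. Pre: seeds in loam/sand, treated at planting. Post: seedlings 2–18 cm (1–4 leaf) in peat-based mix. Compounds in surfactant-containing non-phytotoxic solvent.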
# [9] = system: barnyardgrass (Echinochloa crus-galli); experiment: as above
# Method in brief: as §3
# [10] = system: oilseed rape (Brassica napus); experiment: as above
# Method in brief: as §3
# [11] = Postemergence, 250 g ai/ha, scale 0 to 100
# [12] = Postemergence, 500 g ai/ha, scale 0 to 100
structure (smiles),measurement,setting,value
O=Cn1cc(C(=O)c2ccccc2)c(-c2cc(Cl)cc(Cl)c2)n1 [Compound 28],"Plant response rating, Rice",[1],0
same,"Plant response rating, Ducksalad",[2],0
same,"Plant response rating, Barnyardgrass",[3],0
same,"Plant response rating, Sedge, Umbrella",[4],0
same,"Plant response rating, Ryegrass, Italian",[5]; 31 g ai/ha,0
same,"Plant response rating, Ryegrass, Italian",[5]; 62 g ai/ha,0
same,"Plant response rating, Ryegrass, Italian",[5]; 125 g ai/ha,0
same,"Plant response rating, Ryegrass, Italian",[5]; 250 g ai/ha,0
same,"Plant response rating, Ryegrass, Italian",[5]; 500 g ai/ha,0
same,"Ryegrass, Italian plant response rating",[5]; 31 g ai/ha,0
same,"Ryegrass, Italian plant response rating",[5]; 62 g ai/ha,0
same,"Ryegrass, Italian plant response rating",[5]; 125 g ai/ha,0
same,"Ryegrass, Italian plant response rating",[5]; 250 g ai/ha,10
same,"Ryegrass, Italian plant response rating",[5]; 500 g ai/ha,20
same,"Plant response rating, Poinsettia, Wild",[6]; 31 g ai/ha,0
same,"Plant response rating, Poinsettia, Wild",[6]; 62 g ai/ha,0
same,"Plant response rating, Poinsettia, Wild",[6]; 125 g ai/ha,0
same,"Plant response rating, Poinsettia, Wild",[6]; 250 g ai/ha,10
same,"Plant response rating, Poinsettia, Wild",[6]; 500 g ai/ha,15
same,"Poinsettia, Wild plant response rating",[6]; 31 g ai/ha,0
same,"Poinsettia, Wild plant response rating",[6]; 62 g ai/ha,0
same,"Poinsettia, Wild plant response rating",[6]; 125 g ai/ha,0
same,"Poinsettia, Wild plant response rating",[6]; 250 g ai/ha,0
same,"Poinsettia, Wild plant response rating",[6]; 500 g ai/ha,0
same,"Plant response rating, Waterhemp_RES2",[7]; 31 g ai/ha,50
same,"Plant response rating, Waterhemp_RES2",[7]; 62 g ai/ha,60
same,"Plant response rating, Waterhemp_RES2",[7]; 125 g ai/ha,80
same,"Plant response rating, Waterhemp_RES2",[7]; 250 g ai/ha,85
same,"Plant response rating, Waterhemp_RES2",[7]; 500 g ai/ha,90
same,"Plant response rating (0 to 100), Waterhemp","[8]; Postemergence, 62 g ai/ha",95
same,"Plant response rating (0 to 100), Waterhemp","[8]; Postemergence, 125 g ai/ha",98
same,"Plant response rating, Waterhemp",[8]; [11],98
same,"Plant response rating, Waterhemp",[8]; [12],100
same,"Plant response rating, Waterhemp","[8]; Preemergence, 62 g ai/ha",100
same,"Plant response rating, Waterhemp","[8]; Preemergence, 125 g ai/ha",100
same,"Plant response rating, Waterhemp","[8]; Preemergence, 250 g ai/ha",100
same,"Plant response rating, Waterhemp","[8]; Preemergence, 500 g ai/ha",100
same,"Plant response rating (0 to 100), Barnyardgrass","[9]; Postemergence, 62 g ai/ha",0
same,"Plant response rating, Barnyardgrass","[9]; Postemergence, 125 g ai/ha, scale 0 to 100",0
same,"Plant response rating, Barnyardgrass",[9]; [11],0
same,"Plant response rating, Barnyardgrass",[9]; [12],0
same,"Plant response rating, Barnyardgrass","[9]; Preemergence, 62 g ai/ha",0
same,"Plant response rating, Barnyardgrass","[9]; Preemergence, 125 g ai/ha",0
same,"Plant response rating, Barnyardgrass","[9]; Preemergence, 250 g ai/ha",0
same,"Plant response rating, Barnyardgrass","[9]; Preemergence, 500 g ai/ha",0
same,"Plant response rating (0 to 100), Oilseed Rape","[10]; Postemergence, 62 g ai/ha",80
same,"Plant response rating (0 to 100), Oilseed Rape","[10]; Postemergence, 125 g ai/ha",85
same,"Plant response rating, Oilseed Rape",[10]; [11],85
same,"Plant response rating, Oilseed Rape",[10]; [12],95
same,"Plant response rating, Oilseed Rape","[10]; Preemergence, 62 g ai/ha",5
same,"Plant response rating, Oilseed Rape","[10]; Preemergence, 125 g ai/ha",30
same,"Plant response rating, Oilseed Rape","[10]; Preemergence, 250 g ai/ha",98
same,"Plant response rating, Oilseed Rape","[10]; Preemergence, 500 g ai/ha",100
